# Experimental data taken from patent publication US4069337A, “2-Substituted-indole-1-lower-alkanecarboxamides having anti-secretory or anti-ulcer activity” (Sterling Drug Inc., priority 1976, dated 1978).
# Where two headings read alike, the source gives them in different places.
# What was measured:
# [1] = test system: secretion of gastric fluids; assay: anti-secretory activity in pylorus-ligated rats (method of Shay et al.); type: in vivo, male albino Wistar rats
# Procedure: In standard biological test procedures, described generally by Shay et al., Gastroenterology 5, 43 (1945) and 26, 906 (1954) and by Selmici et al., Acta Physiol. Acad. Sci. Hung. […] Anti-secretory activity was determined in male albino Wistar rats weighing approximately 180 g. using the method described by Shay et al. which is described as follows: the rats were divided into medicated groups of at least five rats each and control groups of ten rats. The rats were medicated orally once daily for 2 days prior to stomach ligation and once again immediately following ligation. All drugs were administered as the free base, and control rats received only the vehicle of medication. The rats were housed individually in wire cages, food was withdrawn 48 hours prior to surgery, and water was withdrawn at the time of surgery. Laparotomy was performed under light ether anesthesia, the pyloric-duodenal junction was ligated, and the wound was closed with metal clips and sprayed with a protective surgical dressing. Five hours following surgery, the rats were sacrificed, the stomach was removed, and the gastric juice collected. The gastric fluid was centrifuged, the total volume, color, and volume of solids were recorded. The pH of the gastric fluid was then determined on a Beckman pH meter, and the "free" and "total" hydrochloric acid content of each gastric sample was determined by titrating an aliquot of the gastric fluid (diluted to approximately 10 ml. with distilled water) by titrating with 0.1N sodium hydroxide against Toepfers reagent and phenolphthalein, respectively. By determining the milliequivalents of hydrochloric acid per milliliter of gastric juice and knowing the total volume of gastric juice secreted by each rat, the total acid output can be calculated. Since pH is a function of "free" acid, the activity of the test compounds can be evaluated by comparison of the mean "free" acid of medicated rats with the mean "free" acid of the controls, and the activity can thus be expressed in terms of percent inhibition of free acid.
# (§1) Data obtained on administration of the compounds of formula I in rats in the anti-secretory and anti-ulcer tests described above are given in the table below. Unless noted otherwise, data were obtained on oral administration. Results in the anti-secretory activity tests are given in terms of the pH of the gastric fluid in the test animals and the percent inhibition of free acid, while results in the anti-ulcer test are given either in terms of the percent inhibition of ulcers or as a ratio representing the number of animals with ulcers (as the numerator) to the total number of animals in the test group (as the denominator). All doses are expressed in mg./kg.
# [2] = test system: reserpine-induced stomach ulceration; assay: anti-ulcer activity, reserpine-induced ulcer test (method of Selmici et al.); type: in vivo, male, albino, Sprague-Dawley rats; conditions: oral; for inhibition in vivo at 100 mg/kg / Anti-Ulcer: ratio of number of animals with ulcers to total number of animals in the test group: 100 mg./kg.
# Procedure: The anti-ulcer activity of the compounds was determined using the reserpine-induced anti-ulcer test method, described by Selmici et al., which is described briefly as follows: male, albino, Sprague-Dawley rats, weighing approximately 300 g., were divided into medicated and control groups of at least five rats each, and one positive control group of five rats medicated with a known drug at the active dose was run with each experiment. The rats were medicated forty-eight, twenty-four, and one hour before receiving an injection of reserpine. All test drugs were administered orally in terms of base, and the control rats received only the vehicle of medication. The rats were housed individually in wire cages, and food was withdrawn 24 hours prior to injection of reserpine, while water was allowed ad libitum. One hour following the third medication, 5.0 mg. of reserpine per kilogram of body weight in a concentration of 5 mg./ml. was injected intramuscularly in each rat. Eighteen hours after injection the rats were sacrificed, their stomachs removed, opened along the greater curvature, rinsed in warm saline, and pinned to a cork board for gross observation. The stomachs were examined for the number and size of ulcerations located in the glandular portion of the stomach with the aid of a one millimeter grid ocular with a 10x dissecting microscope. The degree of ulceration was arbitrarily graded according to the number and size of the ulcers as follows:
# The points were added together and divided by the number of rats in each group to give an ulcer score, and the difference in the mean scores of the medicated and control group was expressed as percent inhibition of ulceration. Alternatively, the results can be expressed as a ratio of the total number of rats with any degree of ulceration (as the numerator) to the total number of rats in the test group (as the denominator).
# as §1
# [3] = Rattus norvegicus, po, 5 h, oral, 25 mg./kg., read-out: % Inhibition of Free Acid
# [4] = Rattus norvegicus, po, 5 h, oral, 100 mg./kg., read-out: % Inhibition of Free Acid
# [5] = Rattus norvegicus, intraduodenal, 5 h, i.d., 100 mg./kg., read-out: % Inhibition of Free Acid
# [6] = Rattus norvegicus, ip, 5 h, i.p., 100 mg./kg., read-out: % Inhibition of Free Acid
# [7] = Rattus norvegicus, sc, 5 h, s.c., 100 mg./kg., read-out: % Inhibition of Free Acid
structure (smiles),measurement,setting,value
"Cc1c(C)n(CCCC(N)=O)c2ccccc12 [Example 1D, γ-(2,3-Dimethyl-1-indole)butyramide]",inhibition in vivo at 6.25 mg/kg,"[1]; Rattus norvegicus, po, 5 h, oral, 6.25 mg./kg., read-out: % Inhibition of Free Acid",14%
same,inhibition in vivo at 25 mg/kg,[1]; [3],38%
same,inhibition in vivo at 100 mg/kg,[1]; [4],100%
same,pH of the gastric fluid,"[1]; oral, 6.25 mg./kg.",1.3
same,pH of the gastric fluid,"[1]; oral, 25 mg./kg.",1.6
same,pH of the gastric fluid,"[1]; oral, 100 mg./kg.",6.2
same,inhibition in vivo at 0.8 mg/kg,"[2]; Rattus norvegicus, 18 h",38%
same,inhibition in vivo at 1.56 mg/kg,"[2]; Rattus norvegicus, 18 h",38%
same,inhibition in vivo at 6.25 mg/kg,"[2]; Rattus norvegicus, 18 h",0%
same,inhibition in vivo at 25 mg/kg,"[2]; Rattus norvegicus, 18 h",72%
same,inhibition in vivo at 100 mg/kg,"[2]; Rattus norvegicus, 18 h",99%
"CCc1c(C)c2ccccc2n1CCC(N)=O [Example 4D, β-(2-Ethyl-3-methyl-1-indole)propionamide]",inhibition in vivo at 100 mg/kg,[1]; [4],88%
same,pH of the gastric fluid,"[1]; oral, 100 mg./kg.",4.1
same,inhibition in vivo at 100 mg/kg,"[2]; Rattus norvegicus, 18 h",97%
"Cc1c(CO)c2ccccc2n1CCCC(N)=O [Example 8B, γ-(2-Methyl-3-hydroxymethyl-1-indole)butyramide]",inhibition in vivo at 100 mg/kg,[1]; [5],5%
same,inhibition in vivo at 100 mg/kg,[1]; [6],62%
same,inhibition in vivo at 100 mg/kg,[1]; [4],5%
same,inhibition in vivo at 100 mg/kg,[1]; [7],12%
same,pH of the gastric fluid,"[1]; i.d., 100 mg./kg.",1.2
same,pH of the gastric fluid,"[1]; i.p., 100 mg./kg.",2.4
same,pH of the gastric fluid,"[1]; oral, 100 mg./kg.",1.3
same,pH of the gastric fluid,"[1]; s.c., 100 mg./kg.",1.2
same,inhibition in vivo at 100 mg/kg,"[2]; Rattus norvegicus, 18 h",0%
"CCc1c(C)n(CCC(N)=O)c2ccccc12 [Example 4E, β-(2-Methyl-3-ethyl-1-indole)propionamide]",inhibition in vivo at 100 mg/kg,[1]; [4],42%
same,pH of the gastric fluid,"[1]; oral, 100 mg./kg.",3.4
same,inhibition in vivo at 6.25 mg/kg,"[2]; Rattus norvegicus, 18 h",60%
same,inhibition in vivo at 12.5 mg/kg,"[2]; Rattus norvegicus, 18 h",72%
same,inhibition in vivo at 25 mg/kg,"[2]; Rattus norvegicus, 18 h",80%
same,inhibition in vivo at 50 mg/kg,"[2]; Rattus norvegicus, 18 h",94%
same,inhibition in vivo at 100 mg/kg,"[2]; Rattus norvegicus, 18 h",93%
"Cc1c(C)n(CCC(=O)NCCCO)c2ccccc12 [Example 3E, β-(2,3-Dimethyl-1-indole)-N-(3-hydroxypropyl)propionamide]",inhibition in vivo at 100 mg/kg,[1]; [4],34%
same,pH of the gastric fluid,"[1]; oral, 100 mg./kg.",1.4
same,inhibition in vivo at 25 mg/kg,"[2]; Rattus norvegicus, 18 h",51%
"Cc1c(C)n(CC(N)=O)c2ccccc12 [Example 1A, 2,3-dimethyl-1-indoleacetamide]",inhibition in vivo at 25 mg/kg,[1]; [3],69%
same,inhibition in vivo at 50 mg/kg,"[1]; Rattus norvegicus, po, 5 h, oral, 50 mg./kg., read-out: % Inhibition of Free Acid",65%
same,inhibition in vivo at 100 mg/kg,[1]; [4],100%
same,inhibition in vivo at 200 mg/kg,"[1]; Rattus norvegicus, po, 5 h, oral, 200 mg./kg., read-out: % Inhibition of Free Acid",100%
same,pH of the gastric fluid,"[1]; oral, 25 mg./kg.",2.6
same,pH of the gastric fluid,"[1]; oral, 50 mg./kg.",3.0
same,pH of the gastric fluid,"[1]; oral, 100 mg./kg.",6.0
same,pH of the gastric fluid,"[1]; oral, 200 mg./kg.",6.7
same,inhibition in vivo at 0.8 mg/kg,"[2]; Rattus norvegicus, 18 h",0%
same,inhibition in vivo at 1.56 mg/kg,"[2]; Rattus norvegicus, 18 h",38%
same,inhibition in vivo at 3.12 mg/kg,"[2]; Rattus norvegicus, 18 h, 3.12 mg./kg.",45%
same,inhibition in vivo at 6.25 mg/kg,"[2]; Rattus norvegicus, 18 h",75%
same,inhibition in vivo at 12.5 mg/kg,"[2]; Rattus norvegicus, 18 h",81%
same,inhibition in vivo at 25 mg/kg,"[2]; Rattus norvegicus, 18 h",95%
same,inhibition in vivo at 50 mg/kg,"[2]; Rattus norvegicus, 18 h",98%
same,inhibition in vivo at 100 mg/kg,"[2]; Rattus norvegicus, 18 h",99%
"Cc1c(-c2ccccc2)n(CCC(N)=O)c2ccccc12 [Example 4M, β-(2-Phenyl-3-methyl-1-indole)propionamide]",inhibition in vivo at 100 mg/kg,[1]; [5],34%
same,inhibition in vivo at 100 mg/kg,[1]; [6],43%
same,inhibition in vivo at 100 mg/kg,[1]; [4],20%
same,pH of the gastric fluid,"[1]; i.d., 100 mg./kg.",1.2
same,pH of the gastric fluid,"[1]; i.p., 100 mg./kg.",1.7
same,pH of the gastric fluid,"[1]; oral, 100 mg./kg.",1.1
same,Anti-Ulcer: ratio of number of animals with ulcers to total number of animals in the test group,[2],0/5
"Cc1c(C)n(CCC(N)=O)c2ccc(Cl)cc12 [Example 4B, β-(2,3-Dimethyl-5-chloro-1-indole)propionamide]",inhibition in vivo at 100 mg/kg,[1]; [4],88%
same,pH of the gastric fluid,"[1]; oral, 100 mg./kg.",3.6
same,inhibition in vivo at 25 mg/kg,"[2]; Rattus norvegicus, 18 h",95%
"NC(=O)CCn1c(-c2ccccc2)c(CO)c2ccccc21 [Example 8D, β-(2-Phenyl-3-hydroxymethyl-1-indole)propionamide]",inhibition in vivo at 100 mg/kg,[1]; [4],28%
same,inhibition in vivo at 100 mg/kg,[1]; [7],38%
same,pH of the gastric fluid,"[1]; oral, 100 mg./kg.",1.5
same,pH of the gastric fluid,"[1]; s.c., 100 mg./kg.",1.4
same,Anti-Ulcer: ratio of number of animals with ulcers to total number of animals in the test group,[2],0/5
